Where two headings read alike, the source gives them in different places.
How the values were obtained:
HCV replicon genotype 1b = experiment: HCV replicon assay, genotype 1b (cell ELISA for NS3/4A); format: cell-based, hepatitis C virus
Outline: (§1)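 Readout is NS3/4A protein level from an antibody-based cell ELISA, serving as an indirect measure of replicon RNA; IC50 fitted with a four-parameter function relative to DMSO control. Replicon cells, kept under G418 beforehand, were plated with serial compound dilutions minus G418 for 96 hours.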

HCV replicon genotype 1a = experiment: HCV replicon assay, genotype 1a (cell ELISA for NS3/4A); format: cell-based, hepatitis C virus
Outline: as §1

[1] = Hepatitis C virus, 96 h, read-out: 1b IC50 (nM), HCV genotype 1b replicon cells, 96 hours incubation, NS3/4A ELISA readout, % of DMSO control
[2] = Hepatitis C virus, 96 h, read-out: 1a IC50 (nM), HCV genotype 1a replicon cells, 96 hours incubation, NS3/4A ELISA readout, % of DMSO control
[3] = read-out: 1b IC50, HCV genotype 1b replicon cells, 96 hours incubation, NS3/4A ELISA readout, % of DMSO control
[4] = read-out: 1a IC50, HCV genotype 1a replicon cells, 96 hours incubation, NS3/4A ELISA readout, % of DMSO control

Row | SMILES | IC50 (HCV replicon genotype 1b; [1]) [nM] | IC50 (HCV replicon genotype 1a; [2]) [nM] | IC50 (HCV replicon genotype 1b; [3]) [nM] | IC50 (HCV replicon genotype 1a; [4]) [nM]
1 | CNC(=O)c1c(-c2ccc(F)cc2)oc2cc(N(C)S(C)(=O)=O)c([C@@H]3CCCN(S(=O)(=O)c4ccccc4F)C3)cc12 [Example 119, 2-(4-fluorophenyl)-5-{(3S)-1-[(2-fluorophenyl)sulfonyl]piperidin-3-yl}-N-methyl-6-[methyl(methylsulfonyl)amino]-1-benzofuran-3-carboxamide] | 10.9 | 24.5 | – | –
2 | CNC(=O)c1c(-c2ccc(F)cc2)oc2cc(N(C)S(C)(=O)=O)c([C@@H]3CCCN(S(=O)(=O)c4c(Cl)nc5sccn45)C3)cc12 [Example 118, 5-{(3S)-1-[(6-chloroimidazo[2,1-b][1,3]thiazol-5-yl)sulfonyl]piperidin-3-yl}-2-(4-fluorophenyl)-N-methyl-6-[methyl(methylsulfonyl)amino]-1-benzofuran-3-carboxamide] | 8.36 | 41 | – | –
3 | CNC(=O)c1c(-c2ccc(F)cc2)oc2cc(N(C)S(C)(=O)=O)c([C@@H]3CCCN(c4nc5ncccc5o4)C3)cc12 (single isomer, unassigned) [Example 54, 2-(4-fluorophenyl)-N-methyl-6-(N-methylmethylsulfonamido)-5-(1-(oxazolo[4,5-b]pyridin-2-yl)piperidin-3-yl)benzofuran-3-carboxamide] | – | – | 13.9 | 7.38
4 | CNC(=O)c1c(-c2ccc(F)cc2)oc2cc(N(C)S(C)(=O)=O)c([C@@H]3CCCN(S(=O)(=O)c4ccccc4)C3)cc12 [Example 117, 2-(4-fluorophenyl)-N-methyl-6-[methyl(methylsulfonyl)amino]-5-[(3S)-1-(phenylsulfonyl)piperidin-3-yl]-1-benzofuran-3-carboxamide] | 9.37 | 32.3 | – | –
5 | CNC(=O)c1c(-c2ccc(F)cc2)oc2cc(N(C)S(C)(=O)=O)c([C@@H]3CCCN(C(=O)c4cc5sccc5n4C)C3)cc12 [Example 74, 2-(4-fluorophenyl)-N-methyl-6-[methyl(methylsulfonyl)amino]-5-{1-[(4-methyl-4H-thieno[3,2-b]pyrrol-5-yl)carbonyl]piperidin-3-yl}-1-benzofuran-3-carboxamide] | 43.4 | 54.8 | – | –
6 | CNC(=O)c1c(-c2ccc(F)cc2)oc2cc(N(C)S(C)(=O)=O)c([C@H]3CCCN(C(=O)c4cc5cc(C(F)(F)F)ccc5n4C)C3)cc12 [Example 89, 2-(4-fluorophenyl)-N-methyl-6-[methyl(methylsulfonyl)amino]-5-[(3R)-1-{[1-methyl-5-(trifluoromethyl)-1H-indol-2-yl]carbonyl}piperidin-3-yl]-1-benzofuran-3-carboxamide] | 45.2 | 84.4 | – | –
7 | CNC(=O)c1c(-c2ccc(F)cc2)oc2cc(N(C)S(C)(=O)=O)c([C@H]3CCCN(C(=O)c4cn(C)c5ccccc45)C3)cc12 [Example 101, 2-(4-fluorophenyl)-N-methyl-5-{(3R)-1-[(1-methyl-1H-indol-3-yl)carbonyl]piperidin-3-yl}-6-[methyl(methylsulfonyl)amino]-1-benzofuran-3-carboxamide] | 55.9 | 103 | – | –
8 | CNC(=O)c1c(-c2ccc(F)cc2)oc2cc(N(C)S(C)(=O)=O)c([C@@H]3CCCN(C(=O)Cc4ccc(F)cc4)C3)cc12 (single isomer, unassigned) [Example 17, 2-(4-fluorophenyl)-5-(1-(2-(4-fluorophenyl)acetyl)piperidin-3-yl)-N-methyl-6-(N-methylmethylsulfonamido)benzofuran-3-carboxamide] | 58.2 | 138 | – | –
9 | CNC(=O)c1c(-c2ccc(F)cc2)oc2cc(N(C)S(C)(=O)=O)c([C@H]3CN(C(=O)c4cc5c(F)cccc5n4C)CCO3)cc12 (single isomer, unassigned) [Example 9, 5-(4-(4-fluoro-1-methyl-1H-indole-2-carbonyl)morpholin-2-yl)-2-(4-fluorophenyl)-N-methyl-6-(N-methylmethylsulfonamido)benzofuran-3-carboxamide] | – | – | 67.8 | 54
10 | CNC(=O)c1c(-c2ccc(F)cc2)oc2cc(N(C)S(C)(=O)=O)c([C@H]3CCCN(C(=O)C(c4ccccc4)N4CCOCC4)C3)cc12 (stereo partly drawn) [Example 98, 2-(4-fluorophenyl)-N-methyl-6-[methyl(methylsulfonyl)amino]-5-{(3R)-1-[morpholin-4-yl(phenyl)acetyl]piperidin-3-yl}-1-benzofuran-3-carboxamide] | 112 | 241 | – | –
11 | CNC(=O)c1c(-c2ccc(F)cc2)oc2cc(N(C)S(C)(=O)=O)c([C@@H]3CCCN(S(=O)(=O)c4cc5cccc(F)c5[nH]4)C3)cc12 [Example 2, (S)-5-(1-((7-fluoro-1H-indol-2-yl)sulfonyl)piperidin-3-yl)-2-(4-fluorophenyl)-N-methyl-6-(N-methylmethylsulfonamido)benzofuran-3-carboxamide] | 41 | 84.1 | – | –
12 | CNC(=O)c1c(-c2ccc(F)cc2)oc2cc(N(C)S(C)(=O)=O)c([C@H]3CN(c4nc5ccccc5o4)CCO3)cc12 (single isomer, unassigned) [Example 11, 5-(4-(benzo[d]oxazol-2-yl)morpholin-2-yl)-2-(4-fluorophenyl)-N-methyl-6-(N-methylmethylsulfonamido)benzofuran-3-carboxamide] | – | – | 17.2 | 21.4
13 | CNC(=O)c1c(-c2ccc(F)cc2)oc2cc(N(C)S(C)(=O)=O)c([C@@H]3CCCN(C(=O)c4ccc(F)cc4)C3)cc12 (single isomer, unassigned) [Example 20, 5-(1-(4-fluorobenzoyl)piperidin-3-yl)-2-(4-fluorophenyl)-N-methyl-6-(N-methylmethylsulfonamido)benzofuran-3-carboxamide] | – | – | 46.9 | 48
14 | CNC(=O)c1c(-c2ccc(F)cc2)oc2cc(N(C)S(C)(=O)=O)c([C@@H]3CCCN(S(=O)(=O)Cc4cccnc4)C3)cc12 [Example 110, 2-(4-fluorophenyl)-N-methyl-6-[methyl(methylsulfonyl)amino]-5-{(3S)-1-[(pyridin-3-ylmethyl)sulfonyl]piperidin-3-yl}-1-benzofuran-3-carboxamide] | 38.4 | 164 | – | –
15 | CNC(=O)c1c(-c2ccc(F)cc2)oc2cc(N(C)S(C)(=O)=O)c([C@H]3CCCN(S(=O)(=O)c4c(Cl)nc5sccn45)C3)cc12 [Example 133, 5-{(3R)-1-[(6-chloroimidazo[2,1-b][1,3]thiazol-5-yl)sulfonyl]piperidin-3-yl}-2-(4-fluorophenyl)-N-methyl-6-[methyl(methylsulfonyl)amino]-1-benzofuran-3-carboxamide] | 74.7 | 106 | – | –
16 | CNC(=O)c1c(-c2ccc(F)cc2)oc2cc(N(C)S(C)(=O)=O)c([C@H]3CCCN(S(=O)(=O)c4ccc5ncsc5c4)C3)cc12 [Example 129, 5-[(3R)-1-(1,3-benzothiazol-6-ylsulfonyl)piperidin-3-yl]-2-(4-fluorophenyl)-N-methyl-6-[methyl(methylsulfonyl)amino]-1-benzofuran-3-carboxamide] | 110 | 194 | – | –
17 | CNC(=O)c1c(-c2ccc(F)cc2)oc2cc(N(C)S(C)(=O)=O)c([C@@H]3CCCN(C(=O)c4ccc(F)cc4)C3)cc12 (single isomer, unassigned) [Example 19, 5-(1-(4-fluorobenzoyl)piperidin-3-yl)-2-(4-fluorophenyl)-N-methyl-6-(N-methylmethylsulfonamido)benzofuran-3-carboxamide] | 50.8 | 43.8 | – | –
18 | CNC(=O)c1c(-c2ccc(F)cc2)oc2cc(N(C)S(C)(=O)=O)c([C@H]3CCCN(S(=O)(=O)/C=C/c4ccccc4)C3)cc12 [Example 79, 2-(4-fluorophenyl)-N-methyl-6-[methyl(methylsulfonyl)amino]-5-[(3R)-1-{[(E)-2-phenylethenyl]sulfonyl}piperidin-3-yl]-1-benzofuran-3-carboxamide] | 33.1 | 64.8 | – | –
19 | CNC(=O)c1c(-c2ccc(F)cc2)oc2cc(N(C)S(C)(=O)=O)c([C@@H]3CCCN(C(=O)c4cc5ccccc5n4C)C3)cc12 [Example 67, 2-(4-fluorophenyl)-N-methyl-5-{1-[(1-methyl-1H-indol-2-yl)carbonyl]piperidin-3-yl}-6-[methyl(methylsulfonyl)amino]-1-benzofuran-3-carboxamide] | 87.4 | 156 | – | –
20 | CNC(=O)c1c(-c2ccc(F)cc2)oc2cc(N(C)S(C)(=O)=O)c([C@@H]3CCCN(c4nc5c(C#N)cccc5o4)C3)cc12 [Example 5, (S)-5-(1-(4-cyanobenzo[d]oxazol-2-yl)piperidin-3-yl)-2-(4-fluorophenyl)-N-methyl-6-(N-methylmethylsulfonamido)benzofuran-3-carboxamide] | 19.3 | 53.7 | – | –
21 | CNC(=O)c1c(-c2ccc(F)cc2)oc2cc(N(C)S(C)(=O)=O)c([C@@H]3CCCN(C(=O)c4nc5ccccc5n4C)C3)cc12 (single isomer, unassigned) [Example 24, 2-(4-fluorophenyl)-N-methyl-5-(1-(1-methyl-1H-benzo[d]imidazole-2-carbonyl)piperidin-3-yl)-6-(N-methylmethylsulfonamido)benzofuran-3-carboxamide] | – | – | 40.5 | 32.7
22 | CNC(=O)c1c(-c2ccc(F)cc2)oc2cc(N(C)S(C)(=O)=O)c([C@@H]3CCCN(C(=O)c4cc5cccc(C(F)(F)F)c5[nH]4)C3)cc12 [Example 39, (S)-2-(4-fluorophenyl)-N-methyl-6-(N-methylmethylsulfonamido)-5-(1-(7-(trifluoromethyl)-1H-indole-2-carbonyl)piperidin-3-yl)benzofuran-3-carboxamide] | 36.4 | 268 | – | –

From patent publication US9549921B2, “Heterocyclic compounds and methods of use thereof for the treatment of hepatitis C” (priority 2014, dated 2017)
